Measurements taken from PubChem BioAssay (NCI).
Values joined by “and” are separate entries in the source; they are usually repeats but may differ in a detail not shown here. Equal values may be shown once.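 Grown in 96-well plates, cells were treated for 48 hours with each compound at five concentrations. Insufficient inhibition: endpoint recorded as highest concentration tested. Here, GI50 denotes the concentration required for 50% inhibition of growth. Definition used: TGI = concentration required for complete inhibition of growth.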

How the values were obtained:
Experiment in all cases: NCI-60 cell line screen, 48 h
M19-MEL melanoma = system: M19-MEL melanoma
M14 melanoma = system: M14 melanoma
SF-295 CNS = system: SF-295 CNS
MALME-3M melanoma = system: MALME-3M melanoma
LOX IMVI melanoma = system: LOX IMVI melanoma
KM20L2 colon = system: KM20L2 colon
NCI-H23 lung = system: NCI-H23 lung
CCRF-CEM leukemia = system: CCRF-CEM leukemia
MOLT-4 leukemia = system: MOLT-4 leukemia
SW-620 colon = system: SW-620 colon
SF-268 CNS = system: SF-268 CNS
SK-MEL-28 melanoma = system: SK-MEL-28 melanoma
786-0 renal = system: 786-0 renal
OVCAR-4 ovarian = system: OVCAR-4 ovarian
SK-MEL-2 melanoma = system: SK-MEL-2 melanoma
OVCAR-5 ovarian = system: OVCAR-5 ovarian
HL-60(TB) leukemia = system: HL-60(TB) leukemia
COLO 205 colon = system: COLO 205 colon
NCI-H522 lung = system: NCI-H522 lung
SN12C renal = system: SN12C renal
NCI-H226 lung = system: NCI-H226 lung
SK-MEL-5 melanoma = system: SK-MEL-5 melanoma
A549 NSCLC = system: A549 NSCLC
SNB-75 CNS = system: SNB-75 CNS
A498 renal = system: A498 renal
NCI-H460 lung = system: NCI-H460 lung
HCT-116 colon = system: HCT-116 colon
RXF 393 renal = system: RXF 393 renal
XF 498 CNS = system: XF 498 CNS
HT29 colon = system: HT29 colon
TK-10 renal = system: TK-10 renal
UACC-257 melanoma = system: UACC-257 melanoma
HCC-2998 colon = system: HCC-2998 colon
LXFL 529 NSCLC = system: LXFL 529 NSCLC
HOP-62 NSCLC = system: HOP-62 NSCLC
U251 CNS = system: U251 CNS
SNB-19 CNS = system: SNB-19 CNS
ACHN renal = system: ACHN renal
DMS 273 small cell lung = system: DMS 273 small cell lung
KM12 colon = system: KM12 colon
SK-OV-3 ovarian = system: SK-OV-3 ovarian
SR leukemia = system: SR leukemia
HCT-15 colon = system: HCT-15 colon
K-562 leukemia = system: K-562 leukemia
OVCAR-3 ovarian = system: OVCAR-3 ovarian
HOP-92 NSCLC = system: HOP-92 NSCLC
IGROV1 ovarian = system: IGROV1 ovarian
DMS 114 small cell lung = system: DMS 114 small cell lung
HOP-18 NSCLC = system: HOP-18 NSCLC
UO-31 renal = system: UO-31 renal
EKVX NSCLC = system: EKVX NSCLC
SNB-78 CNS = system: SNB-78 CNS
DLD-1 colon = system: DLD-1 colon
UACC-62 melanoma = system: UACC-62 melanoma
SF-539 CNS = system: SF-539 CNS
CAKI-1 renal = system: CAKI-1 renal

For `Nc1ncnc2c(C3OC(CO)C(O)C3O)scc12` (stereo unspecified), the GI50 (M19-MEL melanoma) was 147 nM, the TGI (M19-MEL melanoma) was 3400 nM and 2310 nM and the TGI (M14 melanoma) was 217 nM and 277 nM. The GI50 (SF-295 CNS) was 591 nM, the TGI (SF-295 CNS) was 2450 nM and 3660 nM and the GI50 (MALME-3M melanoma) was 4350 nM. The TGI (MALME-3M melanoma) was 24400 nM, the GI50 (LOX IMVI melanoma) was 23.3 nM and the TGI (LOX IMVI melanoma) was 1490 nM and 2000 nM. The TGI (KM20L2 colon) was 1070 nM and 1640 nM, the GI50 (NCI-H23 lung) was 58.5 nM and the TGI (NCI-H23 lung) was 1330 nM and 1390 nM. For the same molecule, the TGI (CCRF-CEM leukemia) was 4880 nM and 1560 nM, the GI50 (MOLT-4 leukemia) was 98.9 nM and the TGI (MOLT-4 leukemia) was 1990 nM and 1900 nM. For the same molecule, the TGI (SW-620 colon) was > 100000 nM, the GI50 (SF-268 CNS) was 1410 nM and the TGI (SF-268 CNS) was 33300 nM. The GI50 (SK-MEL-28 melanoma) was 1200 nM, the TGI (SK-MEL-28 melanoma) was 2640 nM and 7040 nM and the GI50 (786-0 renal) was 168 nM. The TGI (786-0 renal) was 4500 nM and 3080 nM, the TGI (OVCAR-4 ovarian) was 2240 nM and 746 nM and the GI50 (SK-MEL-2 melanoma) was 228 nM. The TGI (SK-MEL-2 melanoma) was 2140 nM, the TGI (OVCAR-5 ovarian) was 787 nM and 139 nM and the TGI (HL-60(TB) leukemia) was 9.46 nM. The TGI (COLO 205 colon) was 1150 nM and 1230 nM, the TGI (NCI-H522 lung) was 242 nM and 93.9 nM and the GI50 (SN12C renal) was 105 nM. For the same molecule, the TGI (SN12C renal) was 4930 nM and 4070 nM, the TGI (NCI-H226 lung) was 731 nM and the GI50 (SK-MEL-5 melanoma) was 78.1 nM. The TGI (SK-MEL-5 melanoma) was 4680 nM and 2640 nM, the TGI (A549 NSCLC) was 1460 nM and 5460 nM and the TGI (SNB-75 CNS) was 5500 nM. For the same molecule, the GI50 (A498 renal) was 51.8 nM, the TGI (A498 renal) was 324 nM and 2030 nM and the TGI (NCI-H460 lung) was 554 nM and 1120 nM. For the same molecule, the TGI (HCT-116 colon) was 1120 nM and 2720 nM, the TGI (RXF 393 renal) was 1390 nM and the TGI (XF 498 CNS) was 353 nM and 581 nM. The TGI (HT29 colon) was 1120 nM, the GI50 (TK-10 renal) was 18.6 nM and the TGI (TK-10 renal) was 4010 nM and 4240 nM. The GI50 (UACC-257 melanoma) was 1110 nM, the TGI (HCC-2998 colon) was 121 nM and 277 nM and the GI50 (LXFL 529 NSCLC) was 365 nM. For the same molecule, the TGI (LXFL 529 NSCLC) was 12900 nM, the GI50 (HOP-62 NSCLC) was 120 nM and the TGI (HOP-62 NSCLC) was 2020 nM and 3020 nM. The GI50 (U251 CNS) was 2450 nM, the TGI (U251 CNS) was > 100000 nM and the GI50 (SNB-19 CNS) was 4920 nM. For the same molecule, the TGI (SNB-19 CNS) was 65600 nM, the GI50 (ACHN renal) was 127 nM and the TGI (ACHN renal) was 1900 nM and 3660 nM. For the same molecule, the TGI (DMS 273 small cell lung) was 151 nM and 110 nM, the TGI (KM12 colon) was 26 nM and the TGI (SK-OV-3 ovarian) was 35.7 nM and 75 nM. The GI50 (SR leukemia) was 62.1 nM, the TGI (SR leukemia) was 2490 nM and the TGI (HCT-15 colon) was 584 nM and 140 nM. It also gave a TGI (K-562 leukemia) of 30 nM, a TGI (OVCAR-3 ovarian) of 28.7 nM and a TGI (HOP-92 NSCLC) of 529 nM. For the same molecule, the GI50 (IGROV1 ovarian) was 17.9 nM, the TGI (IGROV1 ovarian) was 3300 nM and the TGI (DMS 114 small cell lung) was 548 nM and 310 nM. For the same molecule, the TGI (HOP-18 NSCLC) was 4540 nM, the TGI (UO-31 renal) was 4560 nM and the GI50 (EKVX NSCLC) was 269 nM. The TGI (EKVX NSCLC) was 4290 nM.
Work on `COc1cc2ccnc(-c3c4ccccc4c(N)c4c(OC)c(OC)ccc34)c2cc1OC` yielded a TGI (M19-MEL melanoma) of 13700 nM, a TGI (SF-295 CNS) of 13900 nM and a TGI (MALME-3M melanoma) of 11500 nM. The TGI (LOX IMVI melanoma) was 3080 nM, the TGI (NCI-H23 lung) was 17700 nM and the TGI (CCRF-CEM leukemia) was 14200 nM. The TGI (MOLT-4 leukemia) was 9530 nM, the TGI (SW-620 colon) was 13100 nM and the TGI (SF-268 CNS) was 18600 nM. The TGI (SK-MEL-28 melanoma) was 6920 nM, the TGI (786-0 renal) was 11500 nM and the TGI (OVCAR-4 ovarian) was 11700 nM. For the same molecule, the TGI (SK-MEL-2 melanoma) was 16600 nM, the TGI (HL-60(TB) leukemia) was 4440 nM and the TGI (COLO 205 colon) was 3090 nM. It also gave a TGI (NCI-H522 lung) of 15900 nM, a TGI (SN12C renal) of 14100 nM and a TGI (SNB-78 CNS) of 18300 nM. The TGI (NCI-H226 lung) was 5660 nM, the TGI (SK-MEL-5 melanoma) was 12300 nM and the TGI (DLD-1 colon) was 16600 nM. The TGI (A549 NSCLC) was 17300 nM, the TGI (A498 renal) was 8890 nM and the TGI (NCI-H460 lung) was 6530 nM. It also gave a TGI (RXF 393 renal) of 6870 nM, a TGI (XF 498 CNS) of 6750 nM and a TGI (HT29 colon) of 11700 nM. It also gave a TGI (TK-10 renal) of 22200 nM, a TGI (UACC-62 melanoma) of 10100 nM and a TGI (UACC-257 melanoma) of 4370 nM. The TGI (HCC-2998 colon) was 8860 nM, the TGI (LXFL 529 NSCLC) was 15700 nM and the TGI (SF-539 CNS) was 4600 nM. For the same molecule, the TGI (HOP-62 NSCLC) was 14900 nM, the TGI (U251 CNS) was 14000 nM and the TGI (SNB-19 CNS) was 15400 nM. It also gave a TGI (ACHN renal) of 14000 nM, a TGI (DMS 273 small cell lung) of 3470 nM and a TGI (KM12 colon) of 11300 nM. The TGI (SK-OV-3 ovarian) was 20400 nM, the TGI (SR leukemia) was 6190 nM and the TGI (K-562 leukemia) was 7980 nM. It also gave a TGI (HOP-92 NSCLC) of 9350 nM, a TGI (IGROV1 ovarian) of 14500 nM and a TGI (DMS 114 small cell lung) of 4710 nM. The TGI (CAKI-1 renal) was 8720 nM, the TGI (UO-31 renal) was 13500 nM and the TGI (EKVX NSCLC) was 24200 nM.
